Assay results: patent publication US11827609B2, “Toll like receptor modulator compounds” (GILEAD SCIENCES, INC., priority 2016, dated 2023)

Experiments:
Assay type in all cases: cell-based
TNFα = experiment: Cytokine profiling assay in human PBMCs, TNFα detection (MSD); conditions: PBMC; cryopreserved human PBMCs, 24 hours at 37° C., half-maximal effect on normalized percent activation; read-out: TNFa AC50
Source text: (§1) Cryopreserved human PBMCs isolated from healthy donors were purchased from StemCell Technologies (Vancouver, Canada). Cell culture medium used was RPMI with L-Glutamine (Mediatech, Manassas, Va.) supplemented with 10% fetal bovine serum (Hyclone, GE Healthcare, Logan, Utah) and Penicillin-Streptomycin (Mediatech). Human TNFα, IL12p40, and IFNα2a 384-well Assay capture plates, standards, buffers and processing reagents were obtained from MesoScale Discovery Technologies (MSD; Rockville, Md.).
(§2) Cryopreserved human PBMCs (1×10e8 cells/ml) were thawed at 37° C. and resuspended in 25 mL warm cell culture medium. The cells were pelleted at 200×g (Beckman Avanti J-E) for 5 min and resuspended in 20 mL of fresh culture media. Cells were counted using a Cellometer (Nexcelcom Bioscience), adjusted to 2×10e6 cells, and incubated for 2 hours in an incubator set at 37° C., 5% CO2 to recover from cryopreservation. Compounds were serially diluted in DMSO at half-log steps to generate a 10-point dose range. Using a Bravo pipette equipped with a 384 well head (Agilent), 0.4 μL of compound was transferred to each well of a 384 well black, clear bottom plate (Greiner Bio-One, Germany) containing 30 μL of cell culture medium. Recovered PBMCs were then dispensed into the assay plate at 50 μL per well (100 k cells/well) using the MicroFlow multichannel dispenser (Biotek). Final DMSO concentration was 0.5%. DMSO was used as the negative control. The plates were incubated for 24 hours at 37° C. PBMCs in the assay plate were pelleted by centrifugation (Beckman Avanti J-E) at 200×g for 5 min.
(§3) Using a Biomek FX 384 well pipetting station (Beckman), conditioned culture medium (CCM) from the assay plate was transferred to MSD capture plates customized for each cytokine. For IFNα and IL12-p40 detection, […], of CCM were added directly to each capture plate, respectively. For TNFα detection, CCM was diluted 1:9 in fresh culture medium, and […], of diluted CCM was used. Serially diluted calibration standards for each cytokine were used to generate standard curves and establish assay linearity. The plates were sealed and incubated overnight at 4° C. in a plate shaker (Titer Plate) set at 200 rpm. On the following day, antibodies specific for each cytokine were diluted 1:50 in MSD Diluent 100 antibody dilution buffer. Diluted antibodies were added to corresponding capture plates at 10 μL/well, and incubated at RT for 1-2 hrs in the shaker. The plates were washed with PBST buffer (3×, 60 μl/well) using a Biotek Multiflow plate washer. MSD Read Buffer diluted to 2× in deionized water and 35 μL/well was added via Biomek FX instrument. The plates were read immediately in a MSD6000 reader. Data were normalized to positive and negative controls in each assay plate. AC50 values represent compound concentrations at half-maximal effect based on normalized percent activation and calculated by non-linear regression using Pipeline Pilot software (Accelrys, San Diego, Calif.).

IFNα = experiment: Cytokine profiling assay in human PBMCs, IFNα detection (MSD); conditions: PBMC; cryopreserved human PBMCs, 24 hours at 37° C., half-maximal effect on normalized percent activation; read-out: IFNa AC50
Source text: as §1, §2, §3

IL12p40 = experiment: Cytokine profiling assay in human PBMCs, IL12p40 detection (MSD); conditions: PBMC; cryopreserved human PBMCs, 24 hours at 37° C., half-maximal effect on normalized percent activation
Source text: as §1, §2, §3

| Structure (SMILES) | AC50 (TNFα) [nM] | AC50 (IFNα) [µM] | AC50 (IL12p40) [nM] |
| --- | --- | --- | --- |
| CCCC[C@](C)(CNC(C)=O)Nc1nc(N)nc2cc(F)c(F)cc12 [Example 3, (R)—N-(2-((2-amino-6,7-difluoroquinazolin-4-yl)amino)-2-methylhexyl)acetamide] | 812 | > 50 | 703 |
| CCCC[C@](C)(CNC(C)=O)Nc1nc(N)nc2c1CCCC2 [Example 6, (R)—N-(2-((2-amino-5,6,7,8-tetrahydroquinazolin-4-yl)amino)-2-methylhexyl)acetamide] | 10200 | > 50 | 9580 |
| CCCC[C@](C)(CNC(C)=O)Nc1nc(N)nc2ccccc12 [Example 1, (R)—N-(2-((2-aminoquinazolin-4-yl)amino)-2-methylhexyl)acetamide] | 63 | > 50 | 52.2 |
| CCCC[C@](C)(CNC(C)=O)Nc1nc(N)nc2c1CCN(C(C)=O)C2 [Example 8, (R)—N-(2-((7-acetyl-2-amino-5,6,7,8-tetrahydropyrido[3,4-d]pyrimidin-4-yl)amino)-2-methylhexyl)acetamide] | 4610 | > 50 | 3630 |
| CCCC[C@](C)(CNC(C)=O)Nc1nc(N)nc2nccnc12 [Example 14, (R)—N-(2-((2-aminopteridin-4-yl)amino)-2-methylhexyl)acetamide] | 1910 | > 50 | 1900 |
| CCCC[C@](C)(CNC(C)=O)Nc1nc(N)nc2cnccc12 [Example 4, (R)—N-(2-((2-aminopyrido[3,4-d]pyrimidin-4-yl)amino)-2-methylhexyl)acetamide] | 110 | > 50 | 132 |
| CCCC[C@H](CNC(C)=O)Nc1nc(N)nc2cc(F)c(F)cc12 [Example 12, (R)—N-(2-((2-amino-6,7-difluoroquinazolin-4-yl)amino)hexyl)acetamide] | 10200 | > 50 | 12000 |
| CCCC[C@H](CNC(C)=O)Nc1nc(N)nc2cc(F)ccc12 [Example 11, (R)—N-(2-((2-amino-7-fluoroquinazolin-4-yl)amino)hexyl)acetamide] | 561 | > 50 | 433 |
| CCCC[C@](C)(CNC(C)=O)Nc1nc(N)nc2c1CN(C(C)=O)CC2 [Example 7, (R)—N-(2-((6-acetyl-2-amino-5,6,7,8-tetrahydropyrido[4,3-d]pyrimidin-4-yl)amino)-2-methylhexyl)acetamide] | 2500 | > 50 | 2320 |
| CCCC[C@](C)(CNC(C)=O)Nc1nc(N)nc2ccsc12 [Example 9] | 1100 | > 50 | 855 |
| CCCC[C@](C)(CNC(C)=O)Nc1nc(N)nc2cc(F)ccc12 [Example 2, (R)—N-(2-((2-amino-7-fluoroquinazolin-4-yl)amino)-2-methylhexyl)acetamide] | 40.9 | > 50 | 8.83 |
| CCCC[C@H](CNC(C)=O)Nc1nc(N)nc2ccsc12 [Example 13] | 9520 | > 50 | 8290 |
| CCCC[C@](C)(CNC(C)=O)Nc1nc(N)nc2ncccc12 [Example 5, (R)—N-(2-((2-aminopyrido[2,3-d]pyrimidin-4-yl)amino)-2-methylhexyl)acetamide] | 543 | > 50 | 364 |
| CCCC[C@H](CNC(C)=O)Nc1nc(N)nc2ccccc12 [Example 10, (R)—N-(2-((2-aminoquinazolin-4-yl)amino)hexyl)acetamide] | 1670 | > 50 | 1320 |
